From US6562381B2, “(+)-Cycloolivil as antioxidant obtained from natural source namely stereospermum personatum” (Council of Scientific and Industrial Research, priority 2001, dated 2003)

Tests used:
[1] = In vitro free radical (DPPH) scavenging antioxidant potency; type: biochemical; details: for 50% Radical scavenging concentration: DPPH radical, tris-HCl buffer pH 7.4, 45 minutes in dark, absorbency at 517 nm, triplicate
Experimental: Antioxidant activity of the compounds was tested for its capacity/potency to scavenge most widely used free radical, 1,1-diphenyl-2-picryl hyrazyl radical (DPPH). […] 200 μl of test compounds were reconstituted to 1 ml in tris-HCl buffer (pH 7.4). […] After incubation for 45 minutes in dark, the absorbency at 517 nm was recorded. Percent radical scavenging activity was calculated accordingly. All the readings were taken in triplicate.

[2] = test system: Cyclic AMP phosphodiesterase; details: known activity, Chem. Pharm. Bull, 1981, 29, 3586-92; cited from earlier work
[3] = known activity, Chem. Pharm. Bull, 1986, 34, 3514-17; cited from earlier work

| Structure (SMILES) | 50% Radical scavenging concentration [1] [µg/mL] | Antioxidant activity compared with reference drugs Probucol and alpha-tocopherol ([1]; comparison in words) | Cyclic AMP phosphodiesterase inhibition [2] | Ca^2+ antagonist activity [3] |
| --- | --- | --- | --- | --- |
| COc1cc([C@H]2c3cc(O)c(OC)cc3C[C@@](O)(CO)[C@@H]2CO)ccc1O [(+)-Cycloolivil] | 21.74 | better than the above mentioned reference drugs | inhibition | Ca^2+ antagonist activity |
| Cc1c(C)c2c(c(C)c1O)CCC(C)(CCCC(C)CCCC(C)CCCC(C)C)O2 (stereo not drawn) [DL α-Tocopherol, reference compound] | 47.80 | – | – | – |
